Reference: publication PMC6325219, “Preclinical Characterization of NVR 3-778, a First-in-Class Capsid Assembly Modulator against Hepatitis B Virus” (Antimicrobial Agents and Chemotherapy, 2018)
Several values for one entry are separate records, joined by “and”; a condition that tells them apart may be missing. Equal values may be shown once. Where a name gives a salt, the structure may show the parent alone. Marks after values point to notes of the source that are not given here.

Experiments:
HBV T109M core variant = tested on: HBV T109M core variant; design: method as in doi:10.1016/S0168-8278(18)30439-2; settings: phase 1b; cited from earlier work
HBV GT B (wild-type HBV) [1] = tested on: HBV GT B (wild-type HBV); design: method as in PMID 26598693; settings: reference; previously published results; cited from earlier work
[2] = tested on: HBV core protein variant Y118F; design: method as in PMID 26598693; settings: previously published results; cited from earlier work
[3] = tested on: HBV core protein variant T109S; design: method as in PMID 26598693; settings: previously published results; cited from earlier work
[4] = tested on: HBV core protein variant T109M; design: method as in PMID 26598693; settings: previously published results; cited from earlier work
[5] = tested on: HBV core protein variant T109I; design: method as in PMID 26598693; settings: previously published results; cited from earlier work
[6] = tested on: HBV core protein variant I105L; design: method as in PMID 26598693; settings: previously published results; cited from earlier work
[7] = tested on: HBV core protein variant I105T; design: method as in PMID 26598693; settings: previously published results; cited from earlier work
[8] = tested on: HBV core protein variant I105V; design: method as in PMID 26598693; settings: previously published results; cited from earlier work
HBV GT B (wild-type HBV) [9] = experiment: Transient-transfection antiviral study in HepG2 cells, GT B (wild-type HBV); format: cell-based, hepatitis B virus; settings: Hepatitis B virus, HepG2, read-out: WT EC50
Method: (§5) Cells were cotransfected with the HBV plasmids (100 ng/well) and a Gaussia expression plasmid (10 ng/well) (Thermo Scientific) using the Lipofectamine LTX Plus transfection reagent (Life Technologies). Transfection mixtures were removed after overnight incubation, and cells were treated with serially diluted NVR 3-778 at a final dimethyl sulfoxide (DMSO) concentration of 0.5%. After 3 days of incubation with the compound, the supernatants were collected and secreted Gaussia luciferase was measured using a Gaussia Flash luciferase assay kit (Thermo Scientific). […] Samples were diluted into lysis buffer (Affymetrix) containing 2.5 µg proteinase K (Affymetrix) at 50°C for 40 min. Intracellular encapsidated HBV DNA was denatured for 30 min at 25°C in 0.2 M NaOH (Sigma) and incubated with HBV DNA probes designed to hybridize to the minus-strand HBV DNA (Affymetrix). The denatured DNA was subsequently detected using a QuantiGene assay kit, according to the branched DNA (bDNA) assay recommended by the manufacturer (Affymetrix).

HBV rtA181V variant = experiment: microbe, parasite or virus in culture; format: cell-based, hepatitis B virus; settings: for EC50 fold change, rtA181V: ratio of mean EC50 against variant over WT HBV, HepG2 cells
Text: (§1) Plasmids containing HBV DNA with rtN236T, rtA181V, rtA181V/N236T, and rtL180M/M204V/N236T were generated using the GT B WT or rtL180M/M204V DNA-containing plasmids and site-directed mutagenesis (Agilent Technologies). A panel of nine different HBV core variants (cW102G, cW102R, cI105V, cI105L, cI105T, cT109S, cT109M, cT109I, and cY118F) was generated, also using the GT B WT DNA-containing plasmid and site-directed mutagenesis. The full-length genome from all plasmids was sequenced to confirm that only the intended nucleotide change(s) was present. Finally, HBV sequences from genotypes A (GenBank accession number AF305422), C (GenBank accession number AB033550), D (GenBank accession number V01460), E (GenBank accession number AB274971), F (GenBank accession number AB036912), G (GenBank accession number AF160501), and H (GenBank accession number AB375159) were gene synthesized as 1.1 times the genome length together with part of the CMV promoter at the 5′ end. The gene-synthesized piece was validated by sequencing and subcloned into the pCMV-HBV plasmid using the restriction sites SalI and NdeI (Genewiz, USA).
(§2) HepG2 cells were seeded in 96-well plates at a density of 20,000 cells/well and allowed to attach overnight at 37°C in 5% CO2. Cells were cotransfected with the HBV plasmids (100 ng/well) and a Gaussia expression plasmid (10 ng/well) (Thermo Scientific) using the Lipofectamine LTX Plus transfection reagent (Life Technologies). Transfection mixtures were removed after overnight incubation, and cells were treated with serially diluted NVR 3-778 at a final dimethyl sulfoxide (DMSO) concentration of 0.5%. After 3 days of incubation with the compound, the supernatants were collected and secreted Gaussia luciferase was measured using a Gaussia Flash luciferase assay kit (Thermo Scientific). Cells were lysed with 0.33% NP-40 (Thermo Scientific), and the cytoplasmic fractions were treated with 2 units of Turbo DNase (Invitrogen) and 10 units of S7 nuclease (Roche) in CutSmart buffer (New England Biolabs) containing 25 µM CaCl2 (G-Biosciences) at 37°C for 60 min, followed by inactivation of the enzymes at 75°C for 15 min. Samples were diluted into lysis buffer (Affymetrix) containing 2.5 µg proteinase K (Affymetrix) at 50°C for 40 min. Intracellular encapsidated HBV DNA was denatured for 30 min at 25°C in 0.2 M NaOH (Sigma) and incubated with HBV DNA probes designed to hybridize to the minus-strand HBV DNA (Affymetrix). The denatured DNA was subsequently detected using a QuantiGene assay kit, according to the branched DNA (bDNA) assay recommended by the manufacturer (Affymetrix).
(§3) To determine percent inhibition, the mean background signal from wells containing only culture medium was subtracted from the signal for all other samples, and percent inhibition at each compound concentration was calculated by normalization to the signals for HepG2.2.15 cells treated with 0.5% DMSO. […] Both CalcuSyn and MacSynergy II (Ann Arbor, MI) software were used to evaluate the effect of compound combinations ([27]). After data analysis at the 95% confidence level, values of synergy or antagonism of <25 µM^2% were defined as insignificant, those between 25 and 50 µM^2% were defined as minor, those between 50 and 100 µM^2% were defined as moderate, and those of >100 µM^2% were defined as strong.

[10] = tested on: HBV rtL180M/M204V variant; experiment: microbe, parasite or virus in culture; format: cell-based, hepatitis B virus; settings: for EC50 fold change, rtL180M/M204V: ratio of mean EC50 against variant over WT HBV, HepG2 cells
Text: as §1, §2, §3

[11] = tested on: HBV rtL180M/M204V/N236T variant; experiment: microbe, parasite or virus in culture; format: cell-based, hepatitis B virus; settings: ratio of mean EC50 against variant over WT HBV, HepG2 cells
Text: as §1, §2, §3

[12] = tested on: HBV rtA181V/N236T variant; format: cell-based, hepatitis B virus; settings: ratio of mean EC50 against variant over WT HBV, HepG2 cells
Text: as §1, §2, §3

HBV rtN236T variant = format: cell-based, hepatitis B virus; settings: ratio of mean EC50 against variant over WT HBV, HepG2 cells
Text: as §1, §2, §3

HBV [13] = experiment: Combination study of NVR 3-778 with nucleos(t)ide analogs in HepG2.2.15 cells (MacSynergy II, CalcuSyn); format: cell-based, hepatitis B virus (GT D); settings: in combination with NVR 3-778; for Antagonism / Synergy: HepG2.2.15 cells, 6 days, MacSynergy II, 95% confidence; for CalcuSyn-predicted effect: based on overall CI; for MacSynergy-predicted effect: volumes <25 µM^2% defined as insignificant
Method: The effect of the compound combinations on cell viability was evaluated by measuring the intracellular ATP levels of HepG2.2.15 cells.
(§4) HepG2.2.15 cells were seeded in 96-well plates at a density of 40,000 cells/well and incubated with serially diluted compounds at a final DMSO concentration of 0.5%. In combination studies, cells were treated with compounds either alone or in combination after combining the compounds in a checkerboard format. In studies examining the effect of human serum, serially diluted NVR 3-778 was added into cell culture medium containing 0% to 40% human serum (BioreclamationIVT). Cells were incubated with the compounds for 3 days, after which the medium was removed, fresh medium containing the compounds was added to the cells, and the cells were incubated for another 3 days prior to harvesting of the supernatants or cells for antiviral assays. To quantify intracellular encapsidated rcDNA or encapsidated pgRNA, cells were first solubilized using lysis buffer containing 1% NP-40 and 10 mM CaCl2. The cytoplasmic fraction was then treated with S7 nuclease (6 units) to remove nonencapsidated nucleic acids, after which the S7 nuclease was inactivated by the addition of EDTA (0.5 M). To quantify extracellular HBV DNA or HBV RNA, supernatants from HepG2.2.15 cells were treated with Turbo DNase at 37°C for 60 min, followed by inactivation of DNase at 75°C for 15 min. The levels of HBV DNA were determined by a bDNA assay as described above (Affymetrix). Supernatants or cell lysates containing HBV RNA were treated with proteinase K (2.5 µg) at 50°C for 40 min, transferred to a capture plate containing HBV RNA probe sets, and hybridized overnight at 55°C. Captured HBV RNA was measured by the addition of a chemiluminescent substrate using a QuantiGene assay (Affymetrix). To determine the cytotoxicity effect of the compounds on proliferating cells, HepG2.2.15 cells were seeded in 96-well plates at a density of 10,000 cells/well and incubated with serially diluted compounds at a final DMSO concentration of 0.5% for 3 days, after which the medium was removed, fresh medium containing the compounds was added to the cells, and the cells were incubated for another 3 days. At day 6, the CellTiter-Glo reagent was added to the cells and viability was determined according to the manufacturer’s protocol (Promega). Luminescence signals were measured at 0.2 s using a Victor X4 multimode plate reader (PerkinElmer).
as §3

[14] = tested on: nucleoside-resistant HBV variants; experiment: Transient-transfection antiviral study, panel of nucleoside-resistant HBV variants (summary statements); format: cell-based, hepatitis B virus; settings: versus WT HBV
Method: as §5

HBV [15] = experiment: Antiviral studies using HepG2.2.15 cells (HBV DNA and HBV RNA readouts); format: cell-based, hepatitis B virus (GT D); settings: HepG2.2.15 cells
Method: as §4, with “In” for “HepG2.2.15 cells were seeded in 96-well plates at a density of 40,000 cells/well and incubated with serially diluted compounds at a final DMSO concentration of 0.5%. In”, “To quantify extracellular HBV DNA or HBV RNA, supernatants from HepG2.2.15 cells were treated with Turbo DNase at 37°C for 60 min, followed by inactivation of DNase at 75°C for 15 min.” left out, “To determine the cytotoxicity effect of the compounds on proliferating cells, HepG2.2.15 cells were seeded in 96-well plates at a density of 10,000 cells/well and incubated with serially diluted compounds at a final DMSO concentration of 0.5% for 3 days, after which the medium was removed, fresh medium containing the compounds was added to the cells, and the cells were incubated for another 3 days.” left out

| SMILES | EC50 FC, wild type (HBV GT B (wild-type HBV) [1]) [fold] | EC50 FC, Y118F [2] [fold] | EC50 FC, T109S [3] [fold] | EC50 FC, T109M [4] [fold] | EC50 FC, T109I [5] [fold] | EC50 FC, I105L [6] [fold] | EC50 FC, I105T [7] [fold] | EC50 FC, I105V [8] [fold] | EC50 (HBV GT B (wild-type HBV) [9]) [µM] | EC50 fold change, rtA181V (HBV rtA181V variant) | EC50 fold change, rtL180M/M204V [10] | EC50 fold change, rtL180M/M204V/N236T [11] | EC50 fold change, rtA181V/N236T [12] | EC50 fold change, rtN236T (HBV rtN236T variant) | Antagonism (HBV [13]) [μM^2%] | Synergy (HBV [13]) [μM^2%] | CalcuSyn-predicted effect (HBV [13]) | MacSynergy-predicted effect (HBV [13]) | further results |
| --- | --- | --- | --- | --- | --- | --- | --- | --- | --- | --- | --- | --- | --- | --- | --- | --- | --- | --- | --- |
| O=C(NCc1cnc(C(F)(F)F)s1)c1ccc2c(c1)NC(=O)c1ccccc1S2(=O)=O [ABI-H0731] |  |  |  |  |  |  |  |  |  |  |  |  |  |  |  |  |  |  | Antiviral response in a patient with a preexisting T109M core variant (HBV T109M core variant): reduced antiviral response |
| COC(=O)C1=C(C)NC(c2ncc(F)cc2F)=N[C@H]1c1ccc(F)cc1Cl [Bay 41-4109] | 1 | 8.2 | 0.40 | 3.7 | 21 | 0.44 | 1.5 | 1.3 |  |  |  |  |  |  |  |  |  |  |  |
| C=C1[C@H](CO)[C@@H](O)C[C@@H]1n1cnc2c(=O)[nH]c(N)nc21 [ETV, entecavir] |  |  |  |  |  |  |  |  | 0.0014 ± 0.0004 | 2.2 ± 0.5^a fold | 31 fold and 31 ± 16^a fold | 14 fold and 14 ± 4^a fold | 1.8 ± 0.6^d fold | 0.67 ± 0.22^d fold | −16.5 | 1.0 | Slight to moderate synergy | Additive |  |
| COC(=O)C1=C(CN2CCOCC2)NC(c2nccs2)=N[C@@H]1c1ccc(F)cc1Br [NVR-010-001-E2] | 1 | 3.7 | 0.43 | 2.8 | 9.2 | 0.49 | 1.2 | 1.3 |  |  |  |  |  |  |  |  |  |  |  |
| CC(C)OC(=O)OCOP(=O)(CO[C@H](C)Cn1cnc2c(N)ncnc21)OCOC(=O)OC(C)C [TDF, Tenofovir disoproxil fumarate] |  |  |  |  |  |  |  |  | 0.032 ± 0.015 | 1.4 ± 0.05^d fold | 1.1 ± 0.3^d fold | 2.9 ± 1.5^b fold | 2.8 ± 1.4^b fold | 2.2 ± 1.0^b fold |  |  |  |  | EC50 (HBV rtA181V variant; Hepatitis B virus, HepG2, read-out: EC50 (mean), rtA181V variant): 0.043 µM; EC50 ([10]; Hepatitis B virus, HepG2, read-out: EC50 (mean), rtL180M/M204V variant): 0.034 µM; Reduction of antiviral activity against the variants that contained rtN236T [14]: about 3 fold |
| C[C@H](Cn1cnc2c(N)ncnc21)OCP(=O)(O)O [TFV, tenofovir] |  |  |  |  |  |  |  |  |  |  |  |  |  |  | −7.3 | 18.5 | Slight to moderate synergy | Additive | Effect on HBV DNA production (HBV [15]): inhibited HBV DNA production; Effect on intracellular encapsidated HBV RNA and secreted HBV RNA (HBV [15]; dose-dependent): increased the levels |
